pIC50: −log10 of the molar value. Where two headings read alike, the source gives them in different places.
Legend:
[1] = test system: F16′A mutant ELIC; settings: F16′A mutant vs wild type; as previously shown; cited from earlier work
[2] = target: T1, wild type ELIC (Dickeya chrysanthemi, UniProt P0C7B7); settings: previously identified; cited from earlier work
T1 construct: expressed in transfected cells; host or cells: Xenopus laevis oocytes (cRNA injection)

[3] = target: T1, wild type ELIC; test: Inhibition of GABA-elicited currents of wild-type ELIC in Xenopus oocytes; type: cell-based, Erwinia chrysanthemii; settings: wild type ELIC; inhibition measured at the GABA EC50; read-out: IC50
Description: Xenopus laevis oocyte-positive females were purchased from NASCO (Fort Atkinson, WI) and maintained according to standard methods. Harvested stage V and VI Xenopus oocytes were washed in four changes of Ca^2+-free ND96 [96 mM NaCl, 2 mM KCl, 1 mM MgCl2, and 5 mM HEPES (pH 7.5)], defolliculated in 1.5 mg mL^–1 collagenase type 1A for approximately 2 h, washed again in four changes of ND96, and stored in ND96 at 16 °C containing 2.5 mM sodium pyruvate, […] gentamycin, and 0.7 mM theophylline.
ELIC (GenBank accession number ADN00343.1) was kindly provided by C. Ulens. For expression in Xenopus oocytes, it was cloned into pGEMHE with the signal sequence of the human α7 nACh receptor. Site-directed mutagenesis was performed with the QuikChange mutagenesis kit (Stratagene, La Jolla, CA). cRNA was transcribed in vitro from the linearized pGEMHE cDNA template using the mMessage mMachine T7 transcription kit (Ambion, Austin, TX). Stage V and VI oocytes were injected with 20 ng of cRNA, and currents were recorded 1–3 days postinjection.
Using two-electrode voltage clamp, Xenopus oocytes were clamped at −60 mV using an OC-725 amplifier (Warner Instruments, Hamden, CT), Digidata 1322A, and the Strathclyde Electrophysiology Software Package (Department of Physiology and Pharmacology, University of Strathclyde, Glasgow, U.K.). Currents were recorded at 5 kHz and filtered at a frequency of 1 kHz. Microelectrodes were fabricated from borosilicate glass (GC120TF-10, Harvard Apparatus, Edenbridge, Kent, U.K.) using a one-stage horizontal pull (P-87, Sutter Instrument Co., Novato, CA) and filled with 3 M KCl. Pipette resistances ranged from 1.0 to 2.0 MΩ. Oocytes were perfused with ND96 at a constant rate of 12 mL min^–1 with complete solution exchange within 5 s. Drug application was accomplished via a simple gravity-fed system calibrated to run at the same rate. Inhibition by test compounds was measured at the GABA EC50 for each mutant.
Analysis and curve fitting were performed using Prism version 4.03 (GraphPad Software, San Diego, CA). Concentration–response data for each oocyte were normalized to the maximal current for that oocyte and the mean ± standard error of the mean (SEM) for a series of oocytes pooled and plotted against agonist or antagonist concentration and iteratively fit to the four-parameter logistic equation. Statistical analysis was performed using a Student’s t test.

[4] = test system: ELIC with mutations of residues 2′ and 6′; settings: mutations of residues 2′ and 6′ in ELIC; cited from earlier work

T1 sequence (P0C7B7 whole entry): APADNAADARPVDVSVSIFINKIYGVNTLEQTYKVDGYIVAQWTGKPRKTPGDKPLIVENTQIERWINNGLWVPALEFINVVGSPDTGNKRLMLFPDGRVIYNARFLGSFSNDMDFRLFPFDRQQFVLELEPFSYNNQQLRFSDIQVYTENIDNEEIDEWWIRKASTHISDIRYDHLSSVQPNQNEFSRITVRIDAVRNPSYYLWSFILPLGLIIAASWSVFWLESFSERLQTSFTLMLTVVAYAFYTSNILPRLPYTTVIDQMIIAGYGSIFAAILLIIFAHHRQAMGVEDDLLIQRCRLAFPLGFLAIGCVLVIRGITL

NCCS [cysteamine]
fold change in cysteamine EC50 [1]: < 10 fold

CCCC(C(=O)OCCN(CC)CC)(c1ccccc1)c1ccccc1 [proadifen]
pIC50 [2]: 5.10 | pIC50 [3]: 5.09

O=S1OC[C@@H]2[C@H](CO1)[C@@]1(Cl)C(Cl)=C(Cl)[C@]2(Cl)C1(Cl)Cl (stereo partly drawn) [α-endosufan]
inhibition of ELIC [4]: abolish inhibition
